Data set [1] is described as follows: Degree of scytonemin dispersion in selected solutions used in cosmetics. In kind it is physicochemical. Particulars: for dispersion level: shaker 1 min, ultrasonic bath 10 min. Here is the method:
0.5 mg scytonemin was weighed out on an analytical balance and suspended in 1 g of the solution: • 1) Propylene glycol (INCI: Propylene Glycol) • 2) Refined apricot oil (INCI: Prunus Armeniaca (Apricot) Kernel Oil) • 3) Glycerin (INCI: Glycerin) • 4) Isohexadecane (INCI: Isohexadecane) • 5) 2-octyldodecan-1-ol ODD (INCI: Octyldodecanol) • 6) SLP Emulsifier (INCI: Sorbitan Laurate/Polyglyceryl-4 Laurate/Dilauryl Citrate)
Subsequently, the sample was mixed using a shaker for approx. 1 min and maintained for 10 min in an ultrasonic bath to achieve a higher dispersion level.
0.5 mg of scytonemin was weighed out on an analytical balance and suspended in 5 g of the composition: • 7) glycerin+glycerol stearate+water+silica+alcohol
The sample was stirred for 5 min using a laboratory stirrer

A short description of data set [2]: Storage stability in room conditions, absorbance spectra before and after. The data set is classed as physicochemical. The note with it: 25° C., 10 months. Here is the method: The compound prepared in Example 1 was stored in room conditions (temp. 25° C.) for 10 months. Absorbance spectra before and after the storage test are identical, which confirms stability of the compound. […] The crystalline form of scytonemin of the invention is stable.

Data set [3] in a line: UV absorption, specific extinction in DMSO by spectrophotometer. In kind it is physicochemical. The note with it: 1% by weight, 1 cm cuvette. On the procedure:
A scytonemin sample obtained according to Example 1 was dissolved in DMSO (dimethylsulfoxide) to a concentration of 1% by weight and subsequently, with a spectrophotometer used according to the standard procedures (manufacturer: Varian, model: CARY 100 Scan) absorbance was measured for two wavelengths (305 and 393 nm) in a cuvette with 1 cm thickness.

The conditions of data set [4]: cited from earlier work.
A short description of data set [5]: Thermogravimetric/differential thermal analysis (TG/DTA), thermal decomposition. The data set is classed as physicochemical. The note with it: argon, heating 15 ° C./minute, 3.7 mg. On the procedure: 3.7 mg of the sample was weighed out into an alumina crucible and 34.6 mg of pure gold wire (99.999%) was added to balance the rod weight with the microbalance counterweight.
• Argon flow at 2 atm • Sample weight: 3.7 mg • Crucible: 100 μL Al2O3 • Reference crucible: Al2O3 • Temperature ramp:
Weight losses in successive stages were calculated based on the thermogravimetric curve, and the presence of exothermic and endothermic processes during sample heating were determined from the heat flow curve.

For scytonemin, the dispersion level result is given as “Relatively high dispersion level” in data set [1] (0.5 mg in 1 g 2-octyldodecan-1-ol ODD (solution 5)); “Low dispersion level” in data set [1] (0.5 mg in 1 g SLP Emulsifier (solution 6)); “Low dispersion level” in data set [1] (0.5 mg in 1 g glycerin (solution 3)); “High dispersion level” in data set [1] (0.5 mg in 1 g isohexadecane (solution 4)); “High dispersion level” in data set [1] (0.5 mg in 1 g propylene glycol (solution 1)); “Very low dispersion level” in data set [1] (0.5 mg in 1 g refined apricot oil (solution 2)). Moreover, the “dispersion / dissolution in raw material base” value in data set [1] (0.5 mg in 5 g glycerin+glycerol stearate+water+silica+alcohol (composition 7), stirred 5 min) was “did not dissolve but disintegrated into smaller particles”. Also, in data set [2], the “absorbance spectra before and after the storage test” value is given as “identical”. The “Specific extinction/1% at 305 nm” value in data set [3] (305 nm) was 330. Besides, in data set [3] (393 nm), the “Specific extinction/1% to 393 nm” value turned out to be 730. Moreover, the “characteristic absorbance spectra after continuous UVA irradiation” value in data set [4] (2 months, UVA 5 W/m2) is “practically unchanged”. For the same substance, the “characteristic absorbance spectra after heating” value in data set [4] (heating to 60° C. for 2 months) is “practically unchanged”. Also, the “Maximum of weight loss (decomposition maximum)” value in data set [5] was 380.3 °C. Also, the “T range of decomposition” value in data set [5] is 365.4-380.3 °C.

Values taken from patent publication US20240263133A1, “PROCESS FOR THE ISOLATION AND CULTURE OF STRAINS, THE STRAINS, USE THEREOF, MEDIA FOR CULTURING THEREOF AND A FORM OF SCYTONEMIN” (UVERA SA, priority 2021, published 2024).
